The values that follow come from patent US10912815B2, “Inhibitors of mitochondrial fission and methods of use thereof” (The Board of Trustees of the Leland Stanford Junior …, priority 2011, dated 2021).

The test system of one test is SH-SY5Y cells. The test can be described thus: Mitochondrial membrane potential in SH-SY5Y cells (TMRM). The test is classed as cell-based, human. Particulars: SH-SY5Y in the presence of MPP+ or CCCP, FIG. 6B. The procedure:
The effects of MPP+ or CCCP on translocation of Drp1 in the absence and presence of P110 was measured using confocal microscopy. Cultured SH-SY5Y cells in black 96-well plate were treated with Drp1 peptide inhibitor P110 (1 μM) 30 min prior to treatment of MPP+ (2 mM) or CCCP (5 uM). After 2 hrs of treatment, cells were stained with MITOSOX™ (red mitochondrial superoxide indicator) (5 uM, for 10 min, mitochondrial ROS) or TMRM (0.5 uM, for 20 min, MMP) at 37° C. For total ROS detection, cells were treated with MPP+ or CCCP for 24 hrs. ROS level was measured by CM-H2DCFDA (1 μM for 30 min, Invitrogen). Cells were washed with PBS for three times. The detection was performed in a fluorescence microplate reader (Tecan, Infinite M1000) according to manufacturer's instructions. Measurements were normalized to the cell number counted using Hoechst staining.
Mitochondrial membrane potential was also determined using TMRM (tetramethylrhodamine methylester). […] Fluoresence detection was performed using black 96-well plates in a fluorescence microplate reader at 560 nm excitation and 690 nm emission and potential was assessed by quenching of the fluorescent signal. […] A kinetic change of mitochondrial superoxide production was determined by using MITOSOX™ (red mitochondrial superoxide indicator). […]

Test [1] concerns Primary rat dopaminergic neurons. Nature of the test: Mitochondrial fragmentation in primary dopaminergic neurons exposed to MPP+. It counts as cell-based. To be noted: P110 1 μM, MPP+ 1 μM, 15 hrs, FIG. 10B. The procedure:
Primary rat dopaminergic neurons (cultured for 6 days) were treated without or with P110 (1 μM) followed by treatment with or without MPP+(1 μM). Two hrs following MPP+ treatment, the cells were stained with MITOSOX™ red (to measure mitochondrial superoxide production) and anti-TH antibody (a marker of dopaminergic neurons). Fifteen hrs after MPP+ treatment, cells were stained with anti-TH antibody and anti-Tom20 antibody (a marker of mitochondria).

For the next test, the target named is Drp1/Fis1 interaction (Homo sapiens, UniProt O00429). The test can be described thus: Direct binding between recombinant Drp1 and Fis1 (immunoprecipitation). Particulars: peptides 1 μM each, Drp1 50 ng, Fis1 50 ng, FIG. 2D. The procedure: In another set of experiments, Drp1 was incubated with Fis1 and the complex was immunoprecipitated using anti-Drp1 antibody followed by immunoblotting with anti-Fis1 antibody. For direct binding between Drp1 and Fis1, recombinant Drp1 (50 ng) and Fis1 (50 ng) were incubated in PBS containing 1 mM DSP for 30 min in the presence or absence of Drp1/Fis1 peptides (1 μM each) or control peptide TAT. After termination of the reaction by 50 mM Tris-HCl, pH 7.5, reaction mixtures were subjected to immunoprecipitation with anti-Fis1 antibody in the presence of 1% Triton X-100. Immunoprecipitates were washed with PBS containing 1% Triton X-100 and analyzed by SDS-PAGE and subsequent immunoblotting with antibodies to Fis1 and Drp1.
Sequence of Drp1/Fis1 interaction (O00429 1-710 isoform O00429-3): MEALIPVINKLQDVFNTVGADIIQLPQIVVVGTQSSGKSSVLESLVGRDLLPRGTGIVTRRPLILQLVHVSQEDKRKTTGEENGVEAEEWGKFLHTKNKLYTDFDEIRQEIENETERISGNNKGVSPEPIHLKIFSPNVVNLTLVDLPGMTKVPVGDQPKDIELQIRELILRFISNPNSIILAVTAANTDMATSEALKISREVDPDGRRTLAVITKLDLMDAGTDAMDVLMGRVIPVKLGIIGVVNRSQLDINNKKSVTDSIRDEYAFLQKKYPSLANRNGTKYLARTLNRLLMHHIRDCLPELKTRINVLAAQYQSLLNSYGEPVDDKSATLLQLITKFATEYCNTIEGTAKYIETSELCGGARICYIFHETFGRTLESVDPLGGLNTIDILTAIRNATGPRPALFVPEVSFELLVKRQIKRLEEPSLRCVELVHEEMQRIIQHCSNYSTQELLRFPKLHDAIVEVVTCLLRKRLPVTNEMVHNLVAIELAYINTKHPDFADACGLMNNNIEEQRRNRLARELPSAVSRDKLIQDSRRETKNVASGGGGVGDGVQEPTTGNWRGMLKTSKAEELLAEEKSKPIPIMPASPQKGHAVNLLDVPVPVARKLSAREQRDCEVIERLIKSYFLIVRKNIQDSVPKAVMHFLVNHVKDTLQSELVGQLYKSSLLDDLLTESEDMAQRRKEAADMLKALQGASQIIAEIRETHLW

Another test concerns the target T1, OPA1 (Homo sapiens, UniProt O60313).
T1 sequence (O60313 88-960): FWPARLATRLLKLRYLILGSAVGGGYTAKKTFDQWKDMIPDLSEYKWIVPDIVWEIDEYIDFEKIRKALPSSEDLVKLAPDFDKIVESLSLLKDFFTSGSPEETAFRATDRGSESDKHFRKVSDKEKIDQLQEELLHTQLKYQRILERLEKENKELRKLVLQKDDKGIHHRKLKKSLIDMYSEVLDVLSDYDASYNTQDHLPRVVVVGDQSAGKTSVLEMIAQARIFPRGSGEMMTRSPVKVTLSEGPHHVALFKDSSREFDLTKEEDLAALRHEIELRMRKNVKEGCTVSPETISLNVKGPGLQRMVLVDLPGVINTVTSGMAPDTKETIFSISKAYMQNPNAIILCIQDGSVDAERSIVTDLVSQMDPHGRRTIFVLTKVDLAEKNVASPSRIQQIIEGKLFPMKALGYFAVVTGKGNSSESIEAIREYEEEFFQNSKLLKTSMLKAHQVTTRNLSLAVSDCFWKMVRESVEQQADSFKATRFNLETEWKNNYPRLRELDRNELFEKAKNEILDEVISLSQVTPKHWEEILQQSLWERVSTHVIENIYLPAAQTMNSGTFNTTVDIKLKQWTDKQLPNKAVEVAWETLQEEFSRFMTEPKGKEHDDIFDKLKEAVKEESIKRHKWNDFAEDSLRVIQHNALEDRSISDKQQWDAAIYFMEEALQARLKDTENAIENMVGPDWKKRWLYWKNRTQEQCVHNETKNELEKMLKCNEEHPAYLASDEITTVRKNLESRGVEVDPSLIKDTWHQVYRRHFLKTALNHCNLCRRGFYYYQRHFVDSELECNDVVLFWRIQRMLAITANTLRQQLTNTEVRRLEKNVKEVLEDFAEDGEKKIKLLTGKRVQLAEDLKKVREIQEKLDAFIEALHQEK
Nature of the test: In vitro GTPase assay, recombinant OPA1. Particulars: recombinant OPA1 25 ng, FIG. 2B. The test is classed as biochemical. The procedure:
First, mitochondrial fission inhibitor constructs were tested to determine what, if any, effects each peptide had on enzyme (GTPase) activity. Recombinant protein Drp1, Mfn1, OPA1 or dynamin-1 (25 ng) was incubated with the indicated modulator peptides for 30 min. GTPase activity was assayed in vitro using a GTPase assay kit (Innova Biosciences, Littleton, USA, or Novus Biologicals, Littleton, Colo.) according to manufacturer's instructions.

No end group written: not given here.

As to “RRRQRRKKRGYGGDLLPRGS (RRRQRRKKRGYGGDLLPRGS-NH2) [P110, TAT47-57 carrier, GG linker, Drp1 region 110 (GTPase domain) peptide DLLPRGS; C-terminus C(O)-NH2]”, in the test on SH-SY5Y cells, the “mitochondrial membrane potential (MMP)” value is given as “significantly recovered”. In addition, in test [1], the mitochondrial fragmentation result was “reduced mitochondrial fragmentation”. For the same sequence, the “Drp1-Fis1 interaction, recombinant proteins” value with Drp1/Fis1 interaction is listed as “blocked”. Moreover, the “effect on GTPase activity of OPA1” value with OPA1 was “no effects”.
